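Five compound concentrations were applied to cells in 96-well plates for 48 hours; endpoints were derived by simple linear interpolation of the resulting dose-response curve. GI50: concentration for 50% inhibition of growth.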 Activity calls are given as the source filed them. No stated cut-off is given here; in the data, active = GI50 up to about 1.1 µM and inactive = higher. Non-standard residues stand in square brackets, D forms with d. Residues, ends and D or L forms follow the SMILES beside them. *: point of attachment. Ac5c = NC1(C(=O)O)CCCC1; Boc = CC(C)(C)OC(=O)*; tBu = CC(C)(C)*
Columns and labels:
Assay in all cases: DTP human tumour cell line panel, 48 h
[1] = test system: MOLT-4
[2] = test system: SK-MEL-5
[3] = test system: MDA-N
[4] = test system: HCT-15
[5] = test system: HCC 2998
[6] = test system: OVCAR-4
[7] = test system: HL-60
[8] = test system: SF-268
[9] = test system: MDA-MB-231
[10] = test system: SW-620
[11] = test system: A498
[12] = test system: OVCAR-8
[13] = test system: SK-OV-3
[14] = test system: SR
[15] = test system: DU-145
[16] = test system: MDA-MB-435
[17] = test system: CAKI-1
[18] = test system: A549
[19] = test system: COLO 205
[20] = test system: BT-549

Row | Structure (SMILES) | GI50 [1] | GI50 [2] | GI50 [3] | GI50 [4] [µM] | GI50 [5] | GI50 [6] | GI50 [7] | GI50 [8] | GI50 [9] | GI50 [10] | GI50 [11] | GI50 [12] | GI50 [13] | GI50 [14] | GI50 [15] | GI50 [16] | GI50 [17] | GI50 [18] | GI50 [19] | GI50 [20]
1 | O=c1[nH]nc(Cc2ccc(Cl)cc2)n1/N=C/c1c[nH]c2ccccc12 | > 100 µM (inactive) | > 100 µM (inactive) | > 100 µM (inactive) | > 100 | > 100 µM (inactive) | > 100 µM (inactive) | > 100 µM (inactive) | > 100 µM (inactive) | > 100 µM (inactive) | > 100 µM (inactive) | > 100 µM (inactive) | > 100 µM (inactive) | > 100 µM (inactive) | > 100 µM (inactive) | > 100 µM (inactive) | > 100 µM (inactive) | > 100 µM (inactive) | > 100 µM (inactive) | – | –
2 | CC1=NN(c2nc(N)nc(CS(C)(=O)=O)n2)C(C)(C)C1 | > 100 µM (inactive) | > 100 µM (inactive) | – | > 100 | > 100 µM (inactive) | > 100 µM (inactive) | > 100 µM (inactive) | > 100 µM (inactive) | > 100 µM (inactive) | > 100 µM (inactive) | > 100 µM (inactive) | > 100 µM (inactive) | > 100 µM (inactive) | > 100 µM (inactive) | > 100 µM (inactive) | > 100 µM (inactive) | > 100 µM (inactive) | – | > 100 µM (inactive) | > 100 µM (inactive)
3 | COc1cc2c(cc1O)-c1c(cnn1-c1ccc([N+](=O)[O-])cc1)CCC2 | 1.02 µM (active) | 13.4 µM (inactive) | – | 14 | – | 19.1 µM (inactive) | – | 8.95 µM (inactive) | 12 µM (inactive) | 23.3 µM (inactive) | 23 µM (inactive) | 19.7 µM (inactive) | 44.3 µM (inactive) | – | 14.8 µM (inactive) | 17.4 µM (inactive) | 10.8 µM (inactive) | 12.7 µM (inactive) | 20.3 µM (inactive) | 21.6 µM (inactive)
4 | CC(OC(C)(C)C)C1NC(=O)C(CCCCNC(=O)OC(C)(C)C)NC(=O)C(Cc2c[nH]c3ccccc23)NC(=O)C(Cc2ccccc2)NC(=O)C2(CCCC2)NC(=O)C(Cc2ccccc2)NC1=O (centres undefined) (cyclo([Ac5c]FWK(Boc)T(tBu)F); configuration not given here) | 7.71 µM (inactive) | 15.9 µM (inactive) | 43.2 µM (inactive) | > 100 | 19 µM (inactive) | 49.9 µM (inactive) | 17.5 µM (inactive) | 16.6 µM (inactive) | 17.5 µM (inactive) | 22.9 µM (inactive) | – | 50.2 µM (inactive) | 68.4 µM (inactive) | 32.2 µM (inactive) | 50.9 µM (inactive) | 14.7 µM (inactive) | 42.9 µM (inactive) | – | 20.4 µM (inactive) | –
5 | N=c1c2c(ncn1N)Oc1c(c(-c3ccccc3)nn1-c1ccccc1)C2c1ccc(Cl)cc1 (centres undefined) | 0.895 µM (active) | – | 1.82 µM (inactive) | 1.31 | 0.762 µM (active) | 1.56 µM (inactive) | 0.408 µM (active) | 1.71 µM (inactive) | 2.63 µM (inactive) | 1.75 µM (inactive) | 1.86 µM (inactive) | 1.95 µM (inactive) | 1.85 µM (inactive) | 0.918 µM (active) | 2.01 µM (inactive) | 1.62 µM (inactive) | 2.1 µM (inactive) | 1.82 µM (inactive) | 0.508 µM (active) | –
6 | C[C@@H]1OC2(O)[C@@H]3CCCN3C(=O)N(Cc3ccccc3)N2C1=O (some centres undefined) | > 100 µM (inactive) | > 100 µM (inactive) | > 100 µM (inactive) | > 100 | > 100 µM (inactive) | > 100 µM (inactive) | > 100 µM (inactive) | > 100 µM (inactive) | > 100 µM (inactive) | > 100 µM (inactive) | > 100 µM (inactive) | > 100 µM (inactive) | > 100 µM (inactive) | > 100 µM (inactive) | > 100 µM (inactive) | > 100 µM (inactive) | > 100 µM (inactive) | > 100 µM (inactive) | > 100 µM (inactive) | –
7 | O=S(=O)(/N=C1/S/C(=N\c2ccccc2)N(c2ccccc2)/C1=N/S(=O)(=O)c1ccccc1)c1ccccc1 | 21.4 µM (inactive) | 16.3 µM (inactive) | 16.6 µM (inactive) | 14.8 | 20.9 µM (inactive) | – | 22.6 µM (inactive) | – | 13.7 µM (inactive) | 19.4 µM (inactive) | 11.4 µM (inactive) | 22.8 µM (inactive) | – | 18.1 µM (inactive) | – | – | – | 22.6 µM (inactive) | 26.9 µM (inactive) | 24.1 µM (inactive)
8 | CCC1=CCC23C(=O)C=CC(=O)C2(C1)C(=O)c1cccc(OC)c1C3=O (centres undefined) | 3.87 µM (inactive) | 16.8 µM (inactive) | 16.5 µM (inactive) | 18 | – | 12.7 µM (inactive) | 2.73 µM (inactive) | 17.6 µM (inactive) | 15.1 µM (inactive) | 15.5 µM (inactive) | – | 15.2 µM (inactive) | – | 9.82 µM (inactive) | 16.9 µM (inactive) | 17.1 µM (inactive) | 13.1 µM (inactive) | 23.8 µM (inactive) | 14.9 µM (inactive) | –
9 | NNC(=O)CC(=O)Nc1ccc(S(=O)(=O)c2ccc(NC(=O)CC(=O)NN)cc2)cc1 | > 100 µM (inactive) | > 100 µM (inactive) | – | > 100 | > 100 µM (inactive) | > 100 µM (inactive) | > 100 µM (inactive) | > 100 µM (inactive) | > 100 µM (inactive) | > 100 µM (inactive) | > 100 µM (inactive) | > 100 µM (inactive) | > 100 µM (inactive) | – | > 100 µM (inactive) | > 100 µM (inactive) | > 100 µM (inactive) | > 100 µM (inactive) | > 100 µM (inactive) | > 100 µM (inactive)
10 | CNc1ncnc2c1nnn2C | > 100 µM (inactive) | > 100 µM (inactive) | > 100 µM (inactive) | > 100 | > 100 µM (inactive) | > 100 µM (inactive) | > 100 µM (inactive) | – | – | > 100 µM (inactive) | > 100 µM (inactive) | > 100 µM (inactive) | > 100 µM (inactive) | – | > 100 µM (inactive) | > 100 µM (inactive) | > 100 µM (inactive) | > 100 µM (inactive) | > 100 µM (inactive) | –
11 | Cc1ccccc1OC(C)C(=O)NN1C(=O)CC(=O)N(c2ccccc2)C1=S (centres undefined) | 34 µM (inactive) | 60.3 µM (inactive) | – | 51.3 | 70.8 µM (inactive) | > 100 µM (inactive) | 10.4 µM (inactive) | 76.6 µM (inactive) | > 100 µM (inactive) | 78.3 µM (inactive) | 36 µM (inactive) | 56.6 µM (inactive) | > 100 µM (inactive) | – | 51.1 µM (inactive) | 73.1 µM (inactive) | > 100 µM (inactive) | 29.1 µM (inactive) | 68.4 µM (inactive) | > 100 µM (inactive)
12 | O=c1oc2ccc3ccccc3c2cc1-c1nnc(Nc2ccccc2)s1 | 0.757 µM (active) | – | – | 51.6 | 44.8 µM (inactive) | 20 µM (inactive) | – | 61.8 µM (inactive) | 18.2 µM (inactive) | – | 1.27 µM (inactive) | – | – | 19.3 µM (inactive) | 24.5 µM (inactive) | 78.3 µM (inactive) | 34 µM (inactive) | 31.4 µM (inactive) | – | 33.5 µM (inactive)
13 | O=S(=O)(Nc1ccc2ccc3cccc4ccc1c2c34)c1ccccc1 | 8.77 µM (inactive) | 14.1 µM (inactive) | – | 12.9 | – | > 100 µM (inactive) | 37.7 µM (inactive) | 43.6 µM (inactive) | 30.8 µM (inactive) | 30.1 µM (inactive) | – | > 100 µM (inactive) | 58.3 µM (inactive) | 2.67 µM (inactive) | > 100 µM (inactive) | 3.82 µM (inactive) | 6 µM (inactive) | 52.8 µM (inactive) | 29.5 µM (inactive) | > 100 µM (inactive)
14 | CC(C)[Si](OC1=C(C(=O)N(C)c2ccccc2Cl)CCCC1)(C(C)C)C(C)C | 14.1 µM (inactive) | 13.8 µM (inactive) | 16.4 µM (inactive) | 16.1 | 13.6 µM (inactive) | 13.9 µM (inactive) | – | 13.9 µM (inactive) | 16.3 µM (inactive) | 15.2 µM (inactive) | 16.9 µM (inactive) | 16.2 µM (inactive) | 14.7 µM (inactive) | 5.43 µM (inactive) | 10.6 µM (inactive) | 16.4 µM (inactive) | 14.3 µM (inactive) | 1.57 µM (inactive) | 14.5 µM (inactive) | –
15 | O=C(CC(Cl)=C(Cl)Cl)c1ccccc1 | 12.3 µM (inactive) | > 100 µM (inactive) | – | 24.8 | – | 17.5 µM (inactive) | 55.8 µM (inactive) | > 100 µM (inactive) | 34.8 µM (inactive) | 38.3 µM (inactive) | > 100 µM (inactive) | > 100 µM (inactive) | > 100 µM (inactive) | 21.4 µM (inactive) | > 100 µM (inactive) | 36.3 µM (inactive) | 24.1 µM (inactive) | > 100 µM (inactive) | 28.8 µM (inactive) | 66.1 µM (inactive)
16 | Cc1cc(-c2no[n+]([O-])c2-c2cc(C)sc2S(C)(=O)=O)c(S(C)(=O)=O)s1 | > 100 µM (inactive) | > 100 µM (inactive) | – | > 100 | > 100 µM (inactive) | > 100 µM (inactive) | – | > 100 µM (inactive) | > 100 µM (inactive) | > 100 µM (inactive) | > 100 µM (inactive) | > 100 µM (inactive) | > 100 µM (inactive) | > 100 µM (inactive) | – | > 100 µM (inactive) | > 100 µM (inactive) | – | > 100 µM (inactive) | –
